{"source": "patent US20240024216A1", "about": "“METHODS AND MATERIALS FOR TREATING HAIR LOSS” (The Penn State Research Foundation, priority 2021, published 2024)", "key": {"C57BL/6 mice": {"system": "C57BL/6 mice", "assay": "Hair regrowth after dorsal hair removal in mice", "format": "in vivo", "protocol": "Wild-type C57BL/6 mice (7-8 weeks old) were placed in the lateral decubitus position on a sterile paper sheet after anesthesia using intraperitoneal injection of ketamine (60 mg/kg) and xylazine (4 mg/kg). Sterile surgical instruments (autoclaved) were used during dorsal hair removal. The skin was prepared for hair removal on the dorso-lateral skin (from neck to tail) by shaving with a mechanical shaver, and then hair removal cream (Nair) was placed on the skin for 30-60 seconds. Hair was removed completely by gently wiping the skin with cotton balls soaked in warm water and disinfected using 70% ethanol wipes and betadine 3 times.\nAfter dorsal hair removal, mice were placed in a clean cage on the heating pad for 30 minutes or until recovery. […]\nAt day 14, the backs of the mice were photographed with a digital camera, to evaluate the darkening of skin color. […] In morphological observation (FIG. 1A and FIG. 1), hair growth area was determined as a percentage after photographing hair growth state on the backs of mice and observation was conducted after hair removal at day 0 and after 4-AP treatment (daily systemic) at day 14. […] The level of hair regrowth/pigmentation was quantified by the intensity of the darkness of the back skin in the same area. […]"}, "[1]": {"system": "human foreskin dermal primary Schwann cells", "assay": "Scratch wound healing migration assay, primary dermal Schwann cells", "format": "cell-based", "protocol": "Dermal Schwann cells isolation culture conditions and characterization—The separated dermis was minced into small pieces and placed in a petri dish containing collagenase in DMEM basal medium at 37° C. for 2.5 hours. The dermis was completely dissociated and the medium was cloudy. The dissociated medium was collected in tube and centrifuged at 1500 rpm for 5 minutes. The pellet was resuspended in complete DMEM medium, added on poly-L-lysine coated dish and the dish was incubated at 37° C. in 5% CO2 incubator for overnight. Next day, adhered cells were treated with 10 μM cytosine arabinoside containing DMEM complete medium and incubated at 37° C. in 5% CO2 incubator for 24 hours. After, the cells were cultured in Schwann cells culture medium (ScienCell Research, Catlog No. 1701) until the cells reached about 95% confluence.\nKeratinocytes/Schwann cells/fibroblasts (7×10^4 cells/well keratinocytes and 3.5×10^4 cells/well of SCs and FBs) with their respective medium were seeded on pre-coated either with collagen-I/PLL/no 96-well ImageLock microplate for 6 hours (Incucyte-sartorius plate, Cat log 4379). For the drug treatment cells were pretreated with 4-AP prior to coating for 16-18 hours. […] The plate was incubated in Incucyte automated imaging system, wound healing and cells migration was monitored by time-lapse photography capturing every hour from 0 to 42 hours. […]"}, "[2]": {"system": "human foreskin primary keratinocytes", "assay": "Keratinocyte scratch assay with 4-AP, NGF and NGF-antibody", "format": "cell-based", "details": "at 12 hours", "protocol": "Keratinocytes (7×10^4 cells/well) with KC medium were seeded on collagen-I pre-coated 96-well ImageLock microplate for 6 hours. For the drug treatment cells were pretreated with 4-AP prior to coating for 16-18 hours. Next, the wound scratch was created using IncuCyte automated system. After scratches the cells washed with PBS and the respective cells medium was added with individual 1 mM of 4-AP and 200 ng/ml of NGF (MyBioSource, Inc., Catlog No. MBS7114974) in keratinocytes medium and combination of 1 mM of 4-AP & 200 ng/mL NGF with or without 10 μg/ml of NGF-antibody (ThermoFisher Scientific, Catlog No. MA5-32067). The plate was incubated in Incucyte automated imaging system, wound healing and cells migration imaged for every hour until 24 hour and analyzed for percent of closure as described above procedure."}}}
{"smiles": "Nc1ccncc1", "note": "[4-AP, 4-aminopyridine]", "values": [{"measurement": "number of hair follicles (H&E transverse sections)", "setting": "C57BL/6 mice; day 14, compared with saline treated mice", "value": "increased"}, {"measurement": "hair regrowth", "setting": "C57BL/6 mice; day 14 after hair removal, systemic ip 10-50 μg/daily", "value": "around 50%"}, {"measurement": "time to 80% scratch closure", "setting": "[1]; 1 mM 4-AP, 23 hours without treatment", "value": 11, "unit": "h"}, {"measurement": "SOX10 and NGF expression in SCs", "setting": "[1]; compared to controls", "value": "increased"}, {"measurement": "scratch closure", "setting": "[2]; 56% in control cultures, 1 mM 4-AP, 200 ng/ml NGF", "value": 75, "unit": "%"}, {"measurement": "scratch closure with NGF-neutralizing antibody", "setting": "[2]; plus 10 μg/ml NGF-antibody", "value": 67, "unit": "%"}]}
